# From ChEMBL document CHEMBL3826915, “Design and comparative anticonvulsant activity assessment of CNS-active alkyl-carbamoyl imidazole derivatives” (Bioorg Med Chem, 2016)
# Activity calls are given as the source filed them. The rule behind the calls is not given here.
# Key:
# Rattus norvegicus [1] = assay: Neurotoxicity in albino Sprague-Dawley rat assessed as behavioral impairment at 30 mg/kg, po after 1 hr by rotorod test; format: toxicity, organism-based; settings: in vivo
# Mus musculus [2] = assay: Neurotoxicity in albino CF1 mouse assessed as behavioral impairment at 30 mg/kg, ip after 2 hrs by rotorod test; format: toxicity, organism-based; settings: in vivo
# Mus musculus [3] = assay: Neurotoxicity in albino CF1 mouse assessed as behavioral impairment at 300 mg/kg, ip after 2 hrs by rotorod test; format: toxicity, organism-based; settings: in vivo
# Rattus norvegicus [4] = assay: Neurotoxicity in albino Sprague-Dawley rat assessed as behavioral impairment at 30 mg/kg, ip after 0.5 hrs by rotorod test; format: toxicity, organism-based; settings: in vivo
# Mus musculus [5] = assay: Anticonvulsant activity in albino CF1 mouse assessed as protection against maximal electroshock-induced seizures at 100 mg/kg, ip after 0.5 hrs; format: functional, organism-based
# Mus musculus [6] = assay: Neurotoxicity in albino CF1 mouse assessed as behavioral impairment at 30 mg/kg, ip after 0.5 hrs by rotorod test; format: toxicity, organism-based; settings: in vivo
# Rattus norvegicus [7] = assay: Anticonvulsant activity in albino Sprague-Dawley rat assessed as protection against maximal electroshock-induced seizures at 30 mg/kg, po after 0.5 hrs; format: functional, organism-based
# Rattus norvegicus [8] = assay: Neurotoxicity in albino Sprague-Dawley rat assessed as behavioral impairment at 30 mg/kg, po after 0.25 hrs by rotorod test; format: toxicity, organism-based; settings: in vivo
# Mus musculus [9] = assay: Neurotoxicity in albino CF1 mouse assessed as behavioral impairment at 300 mg/kg, ip after 0.5 hrs by rotorod test; format: toxicity, organism-based; settings: in vivo
# Mus musculus [10] = assay: Anticonvulsant activity in albino CF1 mouse assessed as protection against 32 mA current-induced seizure at 30 mg/kg, ip after 0.5 hrs by 6 Hz psychomotor test; format: functional, organism-based
# Rattus norvegicus [11] = assay: Neurotoxicity in albino Sprague-Dawley rat assessed as behavioral impairment at 30 mg/kg, po after 0.5 hrs by rotorod test; format: toxicity, organism-based; settings: in vivo
# Mus musculus [12] = assay: Anticonvulsant activity in albino CF1 mouse assessed as protection against maximal electroshock-induced seizures at 100 mg/kg, ip after 2 hrs; format: functional, organism-based
# Rattus norvegicus [13] = assay: Neurotoxicity in albino Sprague-Dawley rat assessed as behavioral impairment at 30 mg/kg, ip after 0.25 hrs by rotorod test; format: toxicity, organism-based; settings: in vivo
# Rattus norvegicus [14] = assay: Neurotoxicity in albino Sprague-Dawley rat assessed as behavioral impairment at 30 mg/kg, ip after 2 hrs by rotorod test; format: toxicity, organism-based; settings: in vivo
# Rattus norvegicus [15] = assay: Anticonvulsant activity in albino Sprague-Dawley rat assessed as protection against maximal electroshock-induced seizures at 30 mg/kg, ip after 2 hrs; format: functional, organism-based
# Rattus norvegicus [16] = assay: Anticonvulsant activity in albino Sprague-Dawley rat assessed as protection against maximal electroshock-induced seizures at 30 mg/kg, po after 0.25 hrs; format: functional, organism-based
# Mus musculus [17] = assay: Anticonvulsant activity in albino CF1 mouse assessed as protection against maximal electroshock-induced seizures at 30 mg/kg, ip after 2 hrs; format: functional, organism-based
# Rattus norvegicus [18] = assay: Neurotoxicity in albino Sprague-Dawley rat assessed as behavioral impairment at 30 mg/kg, po after 2 hrs by rotorod test; format: toxicity, organism-based; settings: in vivo
# Rattus norvegicus [19] = assay: Anticonvulsant activity in albino Sprague-Dawley rat assessed as protection against maximal electroshock-induced seizures at 30 mg/kg, po after 2 hrs; format: functional, organism-based
# Rattus norvegicus [20] = assay: Anticonvulsant activity in albino Sprague-Dawley rat assessed as protection against maximal electroshock-induced seizures at 30 mg/kg, po after 1 hr; format: functional, organism-based
# Rattus norvegicus [21] = assay: Neurotoxicity in albino Sprague-Dawley rat assessed as behavioral impairment at 30 mg/kg, ip after 1 hr by rotorod test; format: toxicity, organism-based; settings: in vivo
# Mus musculus [22] = assay: Neurotoxicity in albino CF1 mouse assessed as behavioral impairment at 100 mg/kg, ip after 2 hrs by rotorod test; format: toxicity, organism-based; settings: in vivo
# Mus musculus [23] = assay: Anticonvulsant activity in albino CF1 mouse assessed as protection against 32 mA current-induced seizure at 30 mg/kg, ip after 2 hrs by 6 Hz psychomotor test; format: functional, organism-based
# Mus musculus [24] = assay: Anticonvulsant activity in albino CF1 mouse assessed as protection against maximal electroshock-induced seizures at 30 mg/kg, ip after 0.5 hrs; format: functional, organism-based
# Mus musculus [25] = assay: Anticonvulsant activity in albino CF1 mouse assessed as protection against 32 mA current-induced seizure at 100 mg/kg, ip after 2 hrs by 6 Hz psychomotor test; format: functional, organism-based
# Mus musculus [26] = assay: Anticonvulsant activity in albino CF1 mouse assessed as protection against 32 mA current-induced seizure at 100 mg/kg, ip after 0.5 hrs by 6 Hz psychomotor test; format: functional, organism-based
# Mus musculus [27] = assay: Anticonvulsant activity in albino CF1 mouse assessed as protection against maximal electroshock-induced seizures at 300 mg/kg, ip after 2 hrs; format: functional, organism-based
# Mus musculus [28] = assay: Anticonvulsant activity in albino CF1 mouse assessed as protection against 32 mA current-induced seizure at 300 mg/kg, ip after 2 hrs by 6 Hz psychomotor test; format: functional, organism-based
# Mus musculus [29] = assay: Anticonvulsant activity in albino CF1 mouse assessed as protection against 32 mA current-induced seizure at 300 mg/kg, ip after 0.5 hrs by 6 Hz psychomotor test; format: functional, organism-based
# Mus musculus [30] = assay: Anticonvulsant activity in albino CF1 mouse assessed as protection against maximal electroshock-induced seizures at 300 mg/kg, ip after 0.5 hrs; format: functional, organism-based
# Mus musculus [31] = assay: Anticonvulsant activity in ip dosed albino CF1 mouse assessed as protection against 6 Hz current-induced seizure by measuring time to peak effect; format: functional
# Mus musculus [32] = assay: Anticonvulsant activity in ip dosed albino CF1 mouse assessed as protection against maximal electroshock-induced seizures by measuring time to peak effect; format: functional
# [33] = Neurotoxicity in ip dosed albino CF1 mouse assessed as motor impairment by rotorod test; format: toxicity, organism-based; settings: in vivo
# Mus musculus [34] = assay: Anticonvulsant activity in ip dosed albino CF1 mouse assessed as protection against subcutaneous metrazol-induced seizures; format: functional
# Mus musculus [35] = assay: Anticonvulsant activity in ip dosed albino CF1 mouse assessed as protection against subcutaneous metrazol-induced seizures by measuring time to peak effect; format: functional
# Mus musculus [36] = assay: Anticonvulsant activity in ip dosed albino CF1 mouse assessed as protection against 6 Hz current-induced seizures by psychomotor test; format: functional
# Mus musculus [37] = assay: Anticonvulsant activity in ip dosed albino CF1 mouse assessed as protection against maximal electroshock-induced seizures; format: functional
# [38] = Protective index, ratio of TD50 for neurotoxicity in ip dosed albino CF1 mouse to ED50 for anticonvulsant activity in ip dosed […] metrazol-induced seizure albino CF1 mouse model; format: toxicity, organism-based; settings: in vivo, read-out: Ratio TD50/ED50
# Rattus norvegicus [39] = assay: Anticonvulsant activity in albino Sprague-Dawley rat assessed as protection against maximal electroshock-induced seizures at 30 mg/kg, ip after 0.5 hrs; format: functional, organism-based
# [40] = Protective index, ratio of TD50 for neurotoxicity in ip dosed albino CF1 mouse to ED50 for anticonvulsant activity in ip dosed maximal electroshock-induced seizure albino CF1 mouse model; format: toxicity, organism-based; settings: in vivo, read-out: Ratio TD50/ED50
# Rattus norvegicus [41] = assay: Anticonvulsant activity in albino Sprague-Dawley rat assessed as protection against maximal electroshock-induced seizures at 30 mg/kg, ip after 0.25 hrs; format: functional, organism-based
# Rattus norvegicus [42] = assay: Anticonvulsant activity in albino Sprague-Dawley rat assessed as protection against maximal electroshock-induced seizures at 30 mg/kg, ip after 1 hr; format: functional, organism-based
smiles,measurement,setting,value
CC(C)(C)CCOC(=O)NCCCn1ccnc1,Activity,Rattus norvegicus [1],Non-toxic
same,Activity,Mus musculus [2],Non-toxic
same,Activity,Mus musculus [3],Toxic
same,Activity,Rattus norvegicus [4],Non-toxic
same,Activity,Mus musculus [5],Active
same,Activity,Mus musculus [6],Non-toxic
same,Activity,Rattus norvegicus [7],inactive
same,Activity,Rattus norvegicus [8],Non-toxic
same,Activity,Mus musculus [9],Toxic
same,Activity,Mus musculus [10],inactive
same,Activity,Rattus norvegicus [11],Non-toxic
same,Activity,Mus musculus [12],Active
same,Activity,Rattus norvegicus [13],Non-toxic
same,Activity,Rattus norvegicus [14],Non-toxic
same,Activity,Rattus norvegicus [15],inactive
same,Activity,Rattus norvegicus [16],inactive
same,Activity,Mus musculus [17],inactive
same,Activity,Rattus norvegicus [18],Non-toxic
same,Activity,Rattus norvegicus [19],inactive
same,Activity,Rattus norvegicus [20],inactive
same,Activity,Rattus norvegicus [21],Non-toxic
same,Activity,Mus musculus [22],Non-toxic
same,Activity,Mus musculus [23],inactive
CCCCC(CC)COC(=O)NCCCn1ccnc1 (stereo not given),Activity,Mus musculus [2],Non-toxic
same,Activity,Mus musculus [3],Toxic
same,Activity,Mus musculus [24],inactive
same,Activity,Mus musculus [5],Active
same,Activity,Mus musculus [6],Non-toxic
same,Activity,Mus musculus [9],Toxic
same,Activity,Mus musculus [10],inactive
same,Activity,Mus musculus [17],inactive
same,Activity,Mus musculus [25],inactive
same,Activity,Mus musculus [22],Non-toxic
same,Activity,Mus musculus [23],inactive
CC(C)(C)COC(=O)NCCCn1ccnc1,Activity,Rattus norvegicus [1],Non-toxic
same,Activity,Mus musculus [2],Non-toxic
same,Activity,Mus musculus [24],inactive
same,Activity,Rattus norvegicus [4],Non-toxic
same,Activity,Mus musculus [26],inactive
same,Activity,Mus musculus [6],Non-toxic
same,Activity,Rattus norvegicus [7],inactive
same,Activity,Mus musculus [27],Active
same,Activity,Rattus norvegicus [8],Non-toxic
same,Activity,Mus musculus [10],inactive
same,Activity,Rattus norvegicus [11],Non-toxic
same,Activity,Mus musculus [12],Active
same,Activity,Rattus norvegicus [13],Non-toxic
same,Activity,Rattus norvegicus [14],Non-toxic
same,Activity,Mus musculus [17],inactive
same,Activity,Rattus norvegicus [18],Non-toxic
same,Activity,Mus musculus [28],inactive
same,Activity,Rattus norvegicus [19],inactive
same,Activity,Rattus norvegicus [20],inactive
same,Activity,Mus musculus [25],inactive
same,Activity,Mus musculus [29],inactive
same,Activity,Rattus norvegicus [21],Non-toxic
same,Activity,Mus musculus [22],Non-toxic
same,Activity,Mus musculus [30],inactive
same,Activity,Mus musculus [23],inactive
CCCC(CCC)C(=O)O [VALPROIC ACID],Time,Mus musculus [31],0.5 h
same,Time,Mus musculus [32],0.5 h
same,TD50,[33],784 mg/kg
same,ED50,Mus musculus [34],646 mg/kg
same,Time,Mus musculus [35],0.5 h
O=C(NCCCn1ccnc1)OCCc1ccccc1,Activity,Rattus norvegicus [1],Non-toxic
same,Activity,Mus musculus [2],Non-toxic
same,ED50,Mus musculus [36],inactive
same,Activity,Mus musculus [3],Toxic
same,Activity,Mus musculus [24],Active
same,Activity,Rattus norvegicus [4],Non-toxic
same,Time,Mus musculus [31],0.5 h
same,ED50,Mus musculus [37],14 mg/kg
same,Activity,Mus musculus [5],Active
same,Activity,Mus musculus [26],Active
same,Activity,Mus musculus [6],Non-toxic
same,Activity,Mus musculus [27],Active
same,Activity,Rattus norvegicus [8],Non-toxic
same,Activity,Mus musculus [9],Toxic
same,Time,Mus musculus [32],0.5 h
same,selectivity ratio,[38],0.96
same,Activity,Mus musculus [10],inactive
same,Activity,Rattus norvegicus [11],Non-toxic
same,Activity,Mus musculus [12],Active
same,Activity,Rattus norvegicus [13],Non-toxic
same,Activity,Rattus norvegicus [39],Active
same,Activity,Rattus norvegicus [14],Non-toxic
same,selectivity ratio,[40],5.5
same,TD50,[33],77 mg/kg
same,Activity,Mus musculus [17],inactive
same,Activity,Rattus norvegicus [18],Non-toxic
same,Activity,Rattus norvegicus [19],inactive
same,ED50,Mus musculus [34],> 80 mg/kg
same,Activity,Rattus norvegicus [21],Non-toxic
same,Activity,Mus musculus [22],Non-toxic
same,Time,Mus musculus [35],0.5 h
same,Activity,Mus musculus [30],Active
same,Activity,Mus musculus [23],inactive
same,Activity,Rattus norvegicus [41],Active
CCC(C)C(C)OC(=O)NCCCn1ccnc1 (stereo not given),Activity,Rattus norvegicus [1],Non-toxic
same,Activity,Mus musculus [2],Non-toxic
same,Activity,Rattus norvegicus [42],inactive
same,Activity,Mus musculus [24],inactive
same,Activity,Rattus norvegicus [4],Non-toxic
same,Activity,Mus musculus [5],Active
same,Activity,Mus musculus [6],Non-toxic
same,Activity,Rattus norvegicus [7],inactive
same,Activity,Rattus norvegicus [8],Non-toxic
same,Activity,Mus musculus [9],Toxic
same,Activity,Mus musculus [10],inactive
same,Activity,Rattus norvegicus [11],Non-toxic
same,Activity,Mus musculus [12],Active
same,Activity,Rattus norvegicus [13],Non-toxic
same,Activity,Rattus norvegicus [14],Non-toxic
same,Activity,Rattus norvegicus [15],inactive
same,Activity,Rattus norvegicus [16],inactive
same,Activity,Mus musculus [17],inactive
same,Activity,Rattus norvegicus [18],Non-toxic
same,Activity,Rattus norvegicus [19],inactive
same,Activity,Mus musculus [25],inactive
same,Activity,Rattus norvegicus [21],Non-toxic
same,Activity,Mus musculus [22],Non-toxic
same,Activity,Mus musculus [30],Active
same,Activity,Mus musculus [23],inactive
NC(=O)OCC(COC(N)=O)c1ccccc1 [FELBAMATE],Time,Mus musculus [31],0.5 h
same,ED50,Mus musculus [37],25 mg/kg
same,Time,Mus musculus [32],0.5 h
same,selectivity ratio,[40],> 20
same,TD50,[33],> 500 mg/kg
same,ED50,Mus musculus [34],> 250 mg/kg
same,Time,Mus musculus [35],0.5 h
